Test [1] concerns the target hCB1 receptor (Homo sapiens, UniProt P21554). The experiment in a line: hCB1 Gαq16-coupled calcium mobilization assay in CHO-K1 cells. Type of test: cell-based. The following applies: for EC50: hCB1 Ca EC50, CHO cells expressing hCB1 and Gαq16, calcium mobilization.
Test [2] addresses hCB2 receptor (Homo sapiens, UniProt P34972). The experiment in a line: hCB2 Gαq16-coupled calcium mobilization assay in CHO-K1 cells. The format is cell-based. The following applies: hCB2 Ca EC50, CHO cells expressing hCB2 and Gαq16, calcium mobilization.

Several values for one entry are separate records, joined by “and”; a condition that tells them apart may be missing. Equal values may be shown once.

Sequence of hCB2 receptor (P34972 whole entry): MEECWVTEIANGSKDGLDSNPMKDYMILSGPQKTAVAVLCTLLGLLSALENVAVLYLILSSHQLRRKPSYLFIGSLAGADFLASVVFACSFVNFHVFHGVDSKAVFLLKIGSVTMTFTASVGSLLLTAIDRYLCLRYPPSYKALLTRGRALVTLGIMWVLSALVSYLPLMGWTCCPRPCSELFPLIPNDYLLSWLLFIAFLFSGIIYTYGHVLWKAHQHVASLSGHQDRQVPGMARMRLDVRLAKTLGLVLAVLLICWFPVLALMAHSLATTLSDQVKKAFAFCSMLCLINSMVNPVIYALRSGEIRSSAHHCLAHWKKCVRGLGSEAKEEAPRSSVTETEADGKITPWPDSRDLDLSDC
Sequence of hCB1 receptor (P21554 whole entry): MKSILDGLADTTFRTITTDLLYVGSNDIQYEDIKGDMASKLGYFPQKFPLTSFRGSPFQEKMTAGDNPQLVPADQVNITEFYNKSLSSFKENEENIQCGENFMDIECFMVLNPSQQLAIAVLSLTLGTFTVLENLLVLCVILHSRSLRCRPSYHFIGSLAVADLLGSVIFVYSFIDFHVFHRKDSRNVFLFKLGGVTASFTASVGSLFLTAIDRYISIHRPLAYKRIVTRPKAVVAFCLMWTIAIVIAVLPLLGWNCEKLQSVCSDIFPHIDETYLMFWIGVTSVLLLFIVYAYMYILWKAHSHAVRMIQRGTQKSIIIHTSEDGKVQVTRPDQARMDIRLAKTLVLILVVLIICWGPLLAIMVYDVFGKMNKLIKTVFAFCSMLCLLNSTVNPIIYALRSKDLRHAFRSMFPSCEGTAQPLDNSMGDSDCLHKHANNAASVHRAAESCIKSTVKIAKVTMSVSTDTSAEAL

On to `CC(C)[C@H](NC(=O)c1nn(Cc2ccc(F)cc2)c2ccccc12)C(=O)O` [Compound 5, (2S)-2-({1-[(4-Fluorophenyl)methyl]-1H-indazol-3-yl}formamido)-3-methylbutanoic Acid], for which the values for the EC50 in test [1] and in test [2] were 5550 ± 435 nM and 516 ± 19 nM, respectively.
As for `CNC(=O)[C@@H](NC(=O)c1nn(Cc2ccc(F)cc2)c2ccccc12)C(C)C` [Compound 6, (2S)-2-({1-[(4-Fluorophenyl)methyl]-1H-indazol-3-yl}formamido)-N,3-dimethylbutanamide], the results for the EC50 in test [1] and in test [2] were 12 ± 2 nM and 30 ± 1 nM, respectively.
As to `NC(=O)[C@@H](NC(=O)c1nn(Cc2ccc(F)cc2)c2ccccc12)c1ccccc1` [Compound 7, (2S)-2-({1-[(4-Fluorophenyl)methyl]-1H-indazol-3-yl}formamido)-2-phenylacetamide], the EC50 (usually the concentration at which the effect is half-maximal) in test [1] was 178 ± 55 nM; in test [2] it was 42 ± 9 nM.
As for `NC(=O)[C@H](Cc1ccccc1)NC(=O)c1nn(Cc2ccc(F)cc2)c2ccccc12` [Compound 8, (2S)-2-({1-[(4-Fluorophenyl)methyl]-1H-indazol-3-yl}formamido)-3-phenylpropanamide], the EC50 in test [1] came out at 337 ± 33 nM; in test [2] it was 59 ± 7 nM.
In the case of `NC(=O)C1(NC(=O)c2nn(Cc3ccc(F)cc3)c3ccccc23)CCCC1` [Compound 9, N-(1-Carbamoylcyclopentyl)-1-[(4-fluorophenyl)methyl]-1H-indazole-3-carboxamide], the EC50 turned out to be 1240 ± 17 nM in test [1] and 63 ± 6 nM in test [2].
Regarding `CC(C)(NC(=O)c1nn(Cc2ccc(F)cc2)c2ccccc12)C(N)=O` [Compound 10, 2-({1-[(4-Fluorophenyl)methyl]-1H-indazol-3-yl}formamido)-2-methylpropanamide], the EC50 in test [1] was above 10000 nM; in test [2] it was 477 ± 142 nM.
Regarding `CNC(=O)C(C)(C)NC(=O)c1nn(Cc2ccc(F)cc2)c2ccccc12` [Compound 11, 2-({1-[(4-Fluorophenyl)methyl]-1H-indazol-3-yl}formamido)-N,2-dimethylpropanamide], the EC50 in test [1] worked out at 182 ± 6 nM; in test [2], 21 ± 3 nM.
In the same order, the values of `CC(C)(NC(=O)c1nn(Cc2ccc(F)cc2)c2ccccc12)C(=O)Nc1cccc(C(N)=O)c1` [Compound 12, 3-[2-({1-[(4-Fluorophenyl)methyl]-1H-indazol-3-yl}formamido)-2-methylpropanamido]benzamide] are 360 ± 88 nM and 360 ± 48 nM.
With `CN(CC(N)=O)C(=O)C(C)(C)NC(=O)c1nn(Cc2ccc(F)cc2)c2ccccc12` [Compound 13, N-(Carbamoylmethyl)-2-({1-[(4-fluorophenyl)methyl]-1H-indazol-3-yl}formamido)-N,2-dimethylpropanamide], the EC50 in test [1] was found to be 282 ± 73 nM; in test [2], 74 ± 19 nM.
As for `CC(C)(NC(=O)c1nn(Cc2ccc(F)cc2)c2ccccc12)C(=O)N1CCC[C@@H]1C(N)=O` [Compound 15, N-{1-[(2R)-2-Carbamoylpyrrolidin-1-yl]-2-methyl-1-oxopropan-2-yl}-1-[(4-fluorophenyl)methyl]-1H-indazole-3-carboxamide], the EC50 in test [1] and in test [2] was above 10000 nM throughout.
Regarding `NC(=O)[C@@H]1CCCN1C(=O)C1(NC(=O)c2nn(Cc3ccc(F)cc3)c3ccccc23)CC1` [Compound 16, N-{1-[(2S)-2-Carbamoylpyrrolidine-1-carbonyl]cyclopropyl}-1-[(4-fluorophenyl)methyl]-1H-indazole-3-carboxamide], the figures for the EC50 in test [1] and in test [2] were 168 ± 13 nM and 190 ± 88 nM, respectively.
Take `CC(C)(CN1CCC[C@H]1C(N)=O)NC(=O)c1nn(Cc2ccc(F)cc2)c2ccccc12` [Compound 17, N-{1-[(2S)-2-Carbamoylpyrrolidin-1-yl]-2-methylpropan-2-yl}-1-[(4-fluorophenyl)methyl]-1H-indazole-3-carboxamide]: the EC50 is 32 ± 15 nM in test [1] and 101 ± 34 nM in test [2].
On to `O=C(NCc1ccc(F)cc1)c1nn(Cc2ccc(F)cc2)c2ccccc12` [Compound 18, N,1-Bis[(4-fluorophenyl)methyl]-1H-indazole-3-carboxamide], for which the figures for the EC50 in test [1] and in test [2] were 181 ± 20 nM and 168 ± 24 nM, respectively.
As to `NC(=O)c1ccccc1CNC(=O)c1nn(Cc2ccc(F)cc2)c2ccccc12` [Compound 19, N-[(2-Carbamoylphenyl)methyl]-1-[(4-fluorophenyl)methyl]-1H-indazole-3-carboxamide], the EC50 in test [1] stood at 423 ± 190 nM; in test [2] it was 52 ± 22 nM.
For `NC(=O)c1cccc(CNC(=O)c2nn(Cc3ccc(F)cc3)c3ccccc23)c1` [Compound 20, N-[(3-Carbamoylphenyl)methyl]-1-[(4-fluorophenyl)methyl]-1H-indazole-3-carboxamide], the EC50 is 38 ± 14 nM in test [1]; 170 nM and 172 nM in test [2]. In test [1] (percentage of the maximum CP55,940 signal, CHO cells expressing hCB1 and Gαq16), the “hCB1 Ca Emax” value is given as 104 ± 6%.
Consider `NC(=O)c1ccc(CNC(=O)c2nn(Cc3ccc(F)cc3)c3ccccc23)cc1` [Compound 21, N-[(4-Carbamoylphenyl)methyl]-1-[(4-fluorophenyl)methyl]-1H-indazole-3-carboxamide], for which the EC50 is above 10000 nM in test [1] and 1380 ± 149 nM in test [2].
Regarding `C[C@H](NC(=O)c1nn(Cc2ccc(F)cc2)c2ccccc12)c1cccc(C(N)=O)c1` [Compound 22, N-[(1S)-1-(3-Carbamoylphenyl)ethyl]-1-[(4-fluorophenyl)methyl]-1H-indazole-3-carboxamide], in test [1], the EC50 is 26 ± 2 nM.
For the compound `C[C@@H](NC(=O)c1nn(Cc2ccc(F)cc2)c2ccccc12)c1cccc(C(N)=O)c1` [Compound 23, N-[(1R)-1-(3-Carbamoylphenyl)ethyl]-1-[(4-fluorophenyl)methyl]-1H-indazole-3-carboxamide], the EC50 in test [1] stood at 433 ± 84 nM.
Regarding `CC(=O)Nc1cccc(C(C)(C)NC(=O)c2nn(Cc3ccc(F)cc3)c3ccccc23)c1` [Compound 25, N-[2-(3-Acetamidophenyl)propan-2-yl]-1-[(4-fluorophenyl)methyl]-1H-indazole-3-carboxamide], in test [2], the EC50 came to 68 ± 1 nM.
For the compound `CC(C)(NC(=O)c1nn(Cc2ccc(F)cc2)c2ccccc12)c1cccc(NC(N)=O)c1` [Compound 26, N-{2-[3-(Carbamoylamino)phenyl]propan-2-yl}-1-[(4-fluorophenyl)methyl]-1H-indazole-3-carboxamide], the EC50 in test [1] amounted to 590 ± 152 nM.
For the compound `NC(=O)c1cccc(C2(NC(=O)c3nn(Cc4ccc(F)cc4)c4ccccc34)CC2)c1` [Compound 27, N-[1-(3-Carbamoylphenyl)cyclopropyl]-1-[(4-fluorophenyl)methyl]-1H-indazole-3-carboxamide], the results for the EC50 in test [1] and in test [2] were 2740 ± 939 nM and 96 ± 6 nM, respectively.
As to `O=C(NCC1CCCCC1)c1nn(Cc2ccc(F)cc2)c2ccccc12` [Compound 28, N-(Cyclohexylmethyl)-1-[(4-fluorophenyl)methyl]-1H-indazole-3-carboxamide], the results for the EC50 in test [1] and in test [2] were 17 ± 1 nM and 28 ± 8 nM, respectively.
In the case of `NC(=O)N1CCC[C@@H](CNC(=O)c2nn(Cc3ccc(F)cc3)c3ccccc23)C1` [Compound 29, N-{[(3S)-1-Carbamoylpiperidin-3-yl]methyl}-1-[(4-fluorophenyl)methyl]-1H-indazole-3-carboxamide], the EC50 in test [1] was 950 ± 108 nM; in test [2], 178 ± 45 nM.
As to `NC(=O)N1CCC[C@H](CNC(=O)c2nn(Cc3ccc(F)cc3)c3ccccc23)C1` [Compound 30, N-{[(3R)-1-Carbamoylpiperidin-3-yl]methyl}-1-[(4-fluorophenyl)methyl]-1H-indazole-3-carboxamide], in test [1], the EC50 stood at 671 ± 161 nM.
Regarding `NC(=O)CN1CCC[C@@H](CNC(=O)c2nn(Cc3ccc(F)cc3)c3ccccc23)C1` [Compound 32, N-{[(3S)-1-(Carbamoylmethyl)piperidin-3-yl]methyl}-1-[(4-fluorophenyl)methyl]-1H-indazole-3-carboxamide], the results for the EC50 in test [1] and in test [2] were 168 ± 23 nM and 150 ± 6 nM, respectively.
As for `NC(=O)CN1CCC[C@H](CNC(=O)c2nn(Cc3ccc(F)cc3)c3ccccc23)C1` [Compound 33, N-{[(3R)-1-(Carbamoylmethyl)piperidin-3-yl]methyl}-1-[(4-fluorophenyl)methyl]-1H-indazole-3-carboxamide], the concentration giving a half-maximal response (EC50) was 239 ± 76 nM in test [1] and 170 ± 24 nM in test [2].
Consider `CC(C)(NC(=O)c1nn(Cc2ccc(F)cc2)c2ccccc12)C1CCN(C(N)=O)CC1` [Compound 36, N-[2-(1-Carbamoylpiperidin-4-yl)propan-2-yl]-1-[(4-fluorophenyl)methyl]-1H-indazole-3-carboxamide], for which the values for the EC50 in test [1] and in test [2] were 2370 ± 452 nM and 132 ± 49 nM, respectively.
Take `O=C(NC1CCCCC1)c1nn(Cc2ccc(F)cc2)c2ccccc12` [Compound 37, N-Cyclohexyl-1-[(4-fluorophenyl)methyl]-1H-indazole-3-carboxamide]: the EC50 was 23 ± 2 nM in test [1] and 14 ± 3 nM in test [2].
As for `NC(=O)N1CCC[C@H](NC(=O)c2nn(Cc3ccc(F)cc3)c3ccccc23)C1` [Compound 38, N-[(3S)-1-Carbamoylpiperidin-3-yl]-1-[(4-fluorophenyl)methyl]-1H-indazole-3-carboxamide], the EC50 stood at 541 ± 52 nM in test [1] and 59 ± 1 nM in test [2].
Take `NC(=O)N1CCC[C@@H](NC(=O)c2nn(Cc3ccc(F)cc3)c3ccccc23)C1` [Compound 39, N-[(3R)-1-Carbamoylpiperidin-3-yl]-1-[(4-fluorophenyl)methyl]-1H-indazole-3-carboxamide]: the EC50 in test [2] turned out to be 207 ± 66 nM.
Take `NC(=O)CN1CCC[C@H](NC(=O)c2nn(Cc3ccc(F)cc3)c3ccccc23)C1` [Compound 40, N-[(3S)-1-(Carbamoylmethyl)piperidin-3-yl]-1-[(4-fluorophenyl)methyl]-1H-indazole-3-carboxamide]: the EC50 came to 36 ± 14 nM in test [1] and 22 ± 1 nM in test [2].
As for `CC(c1ccc(F)cc1)n1nc(C(=O)NC(C)(C)c2cccc(C(N)=O)c2)c2ccccc21` (stereo not shown) [Compound 47, N-[2-(3-Carbamoylphenyl)propan-2-yl]-1-[1-(4-fluorophenyl)ethyl]-1H-indazole-3-carboxamide], the EC50 in test [1] was determined as 243 ± 37 nM.

(Values after paper PMC12439760 (Bioorganic & medicinal chemistry, 2025).)
